This test concerns the target T1, Dihydrolipoyl dehydrogenase (Mycobacterium tuberculosis (strain CDC 1551 / Oshkosh), UniProt P9WHH8).
T1 sequence (P9WHH8 whole entry): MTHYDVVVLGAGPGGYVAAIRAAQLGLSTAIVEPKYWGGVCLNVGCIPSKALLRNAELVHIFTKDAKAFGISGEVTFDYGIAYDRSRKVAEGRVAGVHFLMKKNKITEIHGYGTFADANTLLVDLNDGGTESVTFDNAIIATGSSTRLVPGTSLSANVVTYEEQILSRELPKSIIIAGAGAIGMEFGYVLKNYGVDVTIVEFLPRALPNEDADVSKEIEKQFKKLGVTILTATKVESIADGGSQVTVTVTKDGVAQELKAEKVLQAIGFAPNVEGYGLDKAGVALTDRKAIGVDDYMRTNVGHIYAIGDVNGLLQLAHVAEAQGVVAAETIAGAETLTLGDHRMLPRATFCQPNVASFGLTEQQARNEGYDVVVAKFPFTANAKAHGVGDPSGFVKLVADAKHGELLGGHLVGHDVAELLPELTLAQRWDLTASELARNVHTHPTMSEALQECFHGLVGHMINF
Briefly: Enzymatic Assay.

We go through two compounds from BindingDB's records for doi:10.1021/bi9016186 (Weill Cornell Medical College, 2010).

What is called IC50 is the concentration at which inhibition is half-maximal. Lower therefore signals higher potency. For `COc1cccc(C(=O)N2CCC3(CC2)C(=O)N(CC(=O)NCCc2ccc(C(F)(F)F)cc2)CN3c2ccccc2)c1` [Triazaspirobenzyl, 8], the IC50 is above 100000 nM.
Under `COc1ccc(C(=O)N2CCC3(CC2)C(=O)N(CC(=O)NCCc2ccc(C(F)(F)F)cc2)CN3c2ccccc2)c(OC)c1` [Triazaspirobenzyl, 4] stands 2000 nM.
